# Experimental data published in US8987201B2, “Black bear parathyroid hormone and methods of using black bear parathyroid hormone” (Michigan Technological University, priority 2009, dated 2015).
# Marks after values point to notes of the source that are not given here.
# What was measured:
# rats = conditions: cited from earlier work
# [1] = test system: men and women with age-related osteoporosis; conditions: 20-30% of cortical and cancellous bone lost; cited from earlier work
# [2] = test system: human fetal osteoblasts (hFOB); assay: Serum starvation cell death in human fetal osteoblasts (trypan blue); format: cell-based; conditions: 100 nM for 1 hour before serum starvation for 24 hours, preliminary studies, p<0.0001
# Experimental: All PTH peptides used in the current study attenuated apoptotic signaling induced by serum starvation in vitro (FIG. 19). bbPTH 1-34 reduced apoptotic signaling in pre-osteoblastic cells more than human PTH (FIG. 19). Recently, we found similar results with preliminary studies in human fetal osteoblasts (hFOB). Serum starvation for 24 hours increased cell death in hFOB (confirmed via trypan blue staining), but pretreatment of hFOB cells with 100 nM PTH 1-34 or 1-84 for 1 hour before starvation reduced percent cell death (percentage change in cell death compared to vehicle pretreatment, hPTH 1-34: −18%, bbPTH 1-34: −25%, hPTH 1-84: −17%, bbPTH 1-84: −21%; p<0.0001; data not shown). […] However, although bbPTH 1-84 was less anti-apoptotic than bbPTH 1-34 and hPTH 1-34 in vitro (FIG. 19) it caused the greatest increases in cortical and trabecular bone mass in the in vivo studies (Table 1, Table 2).
# Male Swiss-Webster mice [3] = assay: Cortical bone mineral content (ash fraction) and geometrical properties of the femur; format: in vivo, mouse; conditions: femoral midshaft, 2.5 nmol/kg s.c., 8 weeks, normalized by body mass, SD in parentheses
# From the text: (§1) All handling procedures and experiments were approved by the Michigan Technological University Institutional Animal Care and Use Committees. Male Swiss-Webster mice were obtained from a commercial breeder (Harlan, Indianapolis, Ind.). All animals were maintained on a 12-h light/12-h dark cycle, and were permitted free access to water and food containing 0.95% calcium (Purina Rodent Diet #5001).
# (§2) In the first experiment, 11 wk old mice received daily (5 days/week) subcutaneous injections of 2.5 nmol/kg PTH 1-34 (hPTH 1-34 or bbPTH 1-34) or acidic saline vehicle (0.15 M NaCl+0.001 N HCl) for 8 weeks (n=10 mice/group). In the second experiment, 12 wk old mice received daily (5 days/week) subcutaneous injections of 2.5 nmol/kg PTH 1-84 (hPTH 1-84 or bbPTH 1-84) or acidic saline vehicle for 8 weeks (n=10 mice/group). All PTH- and vehicle-treated animals received subcutaneous injections of calcein at a dosage of 10 mg/kg on days 12 and 3 before death to label mineralizing bone surfaces. Twenty-four hours following the last treatment injection, mice were sacrificed by carbon dioxide asphyxiation. Right femurs were fixed in 10% neutral buffered formalin. Left femurs were wrapped in 0.15M saline soaked gauze and stored at −20 deg C. Left tibias were stored in 70% ethanol at 4 deg C.
# (§3) Following the bending test, the left femoral diaphyses were ashed in a furnace to determine mineral content (ash fraction). Right femoral diaphyses were embedded in methyl methacrylate and sectioned with a diamond saw to expose the midshaft cross-section. Images of the midshaft cross-sections were captured using a digital camera (Spot Insight QE, Diagnostic Instruments Inc., Sterling Heights, Mich.), and Scion Image analysis software (Scion Corporation, Frederick, Md.) was used to calculate the periosteal area (Ps.Ar), cortical area (Ct.Ar), and endosteal area (Es.Ar) for each sample. Cortical bone thickness (Ct.Th) was calculated in 0.1 mm increments for each anatomical quadrant and for the entire cross-section using image analysis software (Bioquant Osteo, Nashville, Tenn.). Thin sections from the midshaft of the right femur were ground to a thickness of 50 μm and mounted on glass slides. Images of calcein labels were captured at 100× magnification and periosteal and endosteal mineral apposition rates (Ps.MAR and Es.MAR, respectively) and mineralizing surfaces (Ps.MS/BS and Es.MS/MS) were quantified (Bioquant) for each femur.
# (§4) All bone geometrical, architectural, and mineral properties were normalized by body mass to account for potential variation in animal size (31-33). Trabecular bone properties quantified by micro-computed tomography were compared by ANOVA between vehicle, bear, and human PTH-treated mice within each study (PTH 1-34 or PTH 1-84). The microCT parameters were not directly compared between the PTH 1-34 and PTH 1-84 studies because analyses were conducted on different microCT machines. For all other bone properties, all six experimental groups (from both the PTH 1-34 and PTH 1-84 studies) were compared with ANOVA and Fisher's PLSD. A significance of p<0.05 was used for all comparisons.
# [4] = test system: ovariectomized (OVX) Sprague-Dawley rats; assay: In vivo effects of human PTH1-84 and bear PTH1-84 in ovariectomized rats; set-up: species or system rat; conditions: 2.5 nmol/kg s.c., eight weeks
# Experimental: Thirty female, 2.5-month old Sprague-Dawley rats were ovariectomized (OVX) at the commercial breeding facility The OVX animals were randomly assigned into 3 groups of 10 animals per group for further experiments.
# Six weeks after the OVX procedure, the rats were injected subcutaneously for an eight-week period (daily for five days per week) with vehicle (saline) or 2.5 nmol/kg bear or human PTH1-84. Animals were euthanized 24 hours after the last injection. Samples were obtained from the euthanized animals for further analysis.
# Femur bending strength and proximal tibia trabecular architecture were investigated as described in Example 12.
# procollagen-1 mRNA = conditions: Nasu et al., 1998; cited from earlier work
# Male Swiss-Webster mice [5] = assay: Cortical bone dynamic histomorphometry in the femur (calcein labels); format: in vivo, mouse; conditions: femoral midshaft, 2.5 nmol/kg s.c., 8 weeks, SD in parentheses
# From the text: as §1, §2, §3, §4
# Male Swiss-Webster mice [6] = assay: Trabecular bone structure and mineralization in the proximal tibia (micro-computed tomography); format: in vivo, mouse; conditions: PTH 1-84 study: 12 wk old mice, 8 weeks, proximal tibia, normalized by body mass
# From the text: as §1, §2
# Trabecular bone architecture and mineralization were evaluated in the left proximal tibial metaphysis (0.7 mm distal to the growth plate) using micro-computed tomography. Tibias from experiment 1 were scanned on a μCT35 scanner (Scanco Medical AG, Basserdorf, Switzerland) at 3.5 μm (high) resolution. Tibias from experiment 2 were scanned on a μCT40 scanner (Scanco Medical AG, Basserdorf, Switzerland) at 7 μm (high) resolution. Bones were scanned in 70% ethanol. Trabecular bone volume fraction (BV/TV, %), trabecular number (Tb.N, mm^−1), trabecular thickness (Tb.Th, m), trabecular separation (Tb.Sp, m), trabecular apparent mineral density (App.Mn.Dn, mgHA/cm^3) and trabecular tissue mineral density (Mat.Mn.Dn, mgHA/cm^3) were computed using the manufacturer's software.
# as §4
# MC3T3 subclone 4 cells = assay: PTH attenuation of serum-starvation induced caspase-3/7 activity; format: cell-based, mouse; conditions: all concentrations pooled; bbPTH 1-34 vs hPTH 1-34 p=0.006, vs either PTH 1-84 p≦0.018; bbPTH 1-84 vs hPTH 1-84 p=0.090
# Experimental: MC3T3 subclone 4 cells (ATCC, CRL-2593) were maintained in standard culture media (89% alpha-minimum essential media, 1% penicillin/streptomycin, and 10% FBS) at 37° C. in 5% CO2. Cells were not used beyond passage 30.
# MC3T3 cells were seeded at a density of 20,000 cells/well in 96-well plates and allowed to attach overnight. Culture media was then aspirated and replaced with 100 μl of culture media containing 10% FBS and either vehicle (PBS) or PTH (10-100 nM) for one hour, after which media was aspirated and cells were washed with PBS to remove residual serum. To induce apoptosis, cells were incubated in control or serum-free media for 6 hours. Replacement media contained 89% alpha-minimum essential media, 1% penicillin/streptomycin, and either 10% FBS (control media) or 0% FBS (starvation media). After starvation, media was aspirated, cells were washed with PBS, and 50 μl of fresh PBS was added to each well. Caspase-3/7 activity was determined by cleavage of a DEVD substrate (Caspase-Glo 3/7 Assay, #G8093, Promega Corporation). Measured luminescence values were fit to a standard curve prepared with known concentrations of recombinant human caspase-3 (#SE-169, BIOMOL Research Laboratories Inc.). Five wells of each treatment were run per 96-well plate, and procedures were repeated on a minimum of 10 plates. […]
substance,measurement,setting,value
"ALX1-11: recombinant human PTH 1-84 (NPS Pharmaceuticals), under consideration for approval by the FDA",osteosarcoma in rats,rats; long-term usage,generates osteosarcoma
same,bone recovered during the suggested treatment regimen,[1],8%
human PTH1-84 [hPTH 1-84],percentage change in cell death compared to vehicle pretreatment,[2],−17%
same,rate of carcinogenicity compared to human PTH 1-34,"rats; rat, in vivo",lower rate of carcinogenicity
same,Ct.Ar,Male Swiss-Webster mice [3],29.0 (3.7) mm^2/kg
same,Ct.Th,Male Swiss-Webster mice [3],3.41 (0.59)^a mm/kg
same,Es.Ar,Male Swiss-Webster mice [3],25.6 (3.3) mm^2/kg
same,Ps.Ar,Male Swiss-Webster mice [3],"54.6 (4.4)^b,c mm^2/kg"
same,bone volume fraction / trabecular bone volume,[4],equivalently increase
same,production of procollagen-1 mRNA,procollagen-1 mRNA,does not
same,Endosteal MAR,Male Swiss-Webster mice [5],0.62 ( ).39)
same,Endosteal MS/BS,Male Swiss-Webster mice [5],32.1 (19.4)
same,Periosteal MAR,Male Swiss-Webster mice [5],0.60 (0.40)
same,Periosteal MS/BS,Male Swiss-Webster mice [5],20.2 (16.7)
same,BV/TV,Male Swiss-Webster mice [6]; 2.5 nmol/kg s.c. daily 5 days/week,1.34 %/kg
same,App. Mn. Dn,Male Swiss-Webster mice [6]; 2.5 nmol/kg s.c.,2513 ^b mgHA/(cm^3*kg)
same,Mat. Mn. Dn.,Male Swiss-Webster mice [6]; 2.5 nmol/kg s.c.,29810 mgHA/(cm^3*kg)
same,Tb. N,Male Swiss-Webster mice [6]; 2.5 nmol/kg s.c.,98.7 1/mm*kg
same,Tb. Sp,Male Swiss-Webster mice [6]; 2.5 nmol/kg s.c.,9.57 mm/kg
same,Tb. Th,Male Swiss-Webster mice [6]; 2.5 nmol/kg s.c.,1.26 mm/kg
same,"caspase-3/7 activity, comparison between peptide groups",MC3T3 subclone 4 cells,lower levels of apoptosis
